Where two headings read alike, the source gives them in different places.
Experiments:
rat = experiment: animal or person; conditions: for responders at 20 mg/kg: ip
Description: Using 55° C. hot plate pain threshold detector (available from Ninghai Baishi Electronic Medical Instrument Co., Zheijiang, China) the threshold change before and after administration of a pharmaceutical composition of the present invention is tested. […] hind paw was scrubbed with alcohol cotton ball before the experiment. The regular pain threshold was tested twice for each rat, the induced hind paw licking time being recorded as the pain threshold. Measurements were made at 20-30 minute intervals. Only rats with stable pain reaction were used in the pharmaceutical test.
Two species of animals (mice and rats) and four types of pain testing models (i.p. 0.7% acetic acid, s.c. 5% formalin, hot plate 55° C., focused radiant heat) were used.

Mice = experiment: Swelling caused by p-dimethylbenzene in mice; format: in vivo; conditions: p.o. 15 or 30 mg/kg

With `Nc1ccc(CN2CCN(CC(=O)c3ccccc3)CC2)cc1` [IV-12, N^1-(4-aminobenzyl)-N^4-phenacyl piperazine] the “Increase (hot plate) (%)” value (rat; 20 mg/kg, Table 5 summary) was 100%, the responders at 20 mg/kg (rat; Rattus norvegicus, read-out: Analgesic ratio (Increase by 100%)) was 100% and the responders at 20 mg/kg (rat; Rattus norvegicus, read-out: Analgesic ratio (More than 60 seconds)) was 80%. For the same compound, the ED50 (rat; Rattus norvegicus, po, read-out: Analgesia ED50) was 52.4 mg/kg and the “Antagonism for swelling caused by p-dimethylbenzene” value (Mice) was “no antagonism”.

Source: US7332495B2 (priority 2002, dated 2008)
